Source: PubChem BioAssay (NCI)
“And” between values parts separate entries of the source, which are not always exact repeats. Equal values may be shown once.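 Compound exposure: 48 hours, 5 concentrations, 96-well plates. Here, GI50 denotes the concentration required for 50% inhibition of growth. TGI: concentration producing complete growth inhibition.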

Columns and labels:
Assay in all cases: NCI anticancer screen, dose series, 48 h
SK-OV-3 ovarian = test system: SK-OV-3 ovarian
BT-549 breast = test system: BT-549 breast
UACC-257 melanoma = test system: UACC-257 melanoma
UACC-62 melanoma = test system: UACC-62 melanoma
HS 578T breast = test system: HS 578T breast
M14 melanoma = test system: M14 melanoma
NCI-H460 lung = test system: NCI-H460 lung
RXF 393 renal = test system: RXF 393 renal
HT29 colon = test system: HT29 colon
LOX IMVI melanoma = test system: LOX IMVI melanoma

| SMILES | GI50 (SK-OV-3 ovarian) | TGI (SK-OV-3 ovarian) | GI50 (BT-549 breast) [µM] | TGI (BT-549 breast) | GI50 (UACC-257 melanoma) | TGI (UACC-257 melanoma) | GI50 (UACC-62 melanoma) | TGI (UACC-62 melanoma) | GI50 (HS 578T breast) [µM] | TGI (HS 578T breast) | GI50 (M14 melanoma) | TGI (M14 melanoma) | GI50 (NCI-H460 lung) | TGI (NCI-H460 lung) | GI50 (RXF 393 renal) | TGI (RXF 393 renal) | GI50 (HT29 colon) | TGI (HT29 colon) | GI50 (LOX IMVI melanoma) | TGI (LOX IMVI melanoma) |
| --- | --- | --- | --- | --- | --- | --- | --- | --- | --- | --- | --- | --- | --- | --- | --- | --- | --- | --- | --- | --- |
| COc1ccc(/C=N\Nc2nc(SCC(C)C)nc(-c3ccc(OC)cc3)c2C#N)cc1 | 1.46 µM | 14.6 µM | 15.7 | 52.5 µM | 3.35 µM | 35.7 µM | 25.2 µM | > 100 µM | 3.98 | 30.9 µM | 13 µM | 92.2 µM | 0.548 µM | 11 µM | 2.81 µM | 15.8 µM | 3.19 µM | 20.1 µM | 18.2 µM | 75.2 µM |
| Cc1ccc(S(=O)(=O)NC(=O)OC23COCN2COC3)cc1 |  | > 100 µM |  | > 100 µM |  | > 100 µM |  | > 100 µM |  | > 100 µM |  | > 100 µM |  | > 100 µM |  | > 100 µM |  | > 100 µM |  | > 100 µM |
| CN(C)c1nc(N)c(C#N)c(C#N)c1C#N |  | > 10 µM |  | > 10 µM |  | > 10 µM |  | > 10 µM |  | > 10 µM |  | > 10 µM |  | > 10 µM |  | > 10 µM |  | > 10 µM |  | > 10 µM |
| CC1(C)[C@H](O)[C@H](F)C[C@@]2(C)Oc3ccc(C(=O)Nc4ccc5c(c4)NC(=O)C54CCN(CCCCC#N)CC4)cc3C[C@H]12 | 2.1 µM and 0.341 µM | 3.54 µM | 0.0186 | 6.31 µM and 8.37 µM | 1.57 µM | 5.02 µM | 0.0308 µM | 1.13 µM and 1.12 µM | 0.00265 | 0.035 µM and 0.0352 µM | 0.606 µM and 1.06 µM | 4.97 µM and 3.79 µM | 0.0653 µM | 10.9 µM | 0.00279 µM |  | 1.8 µM and 1.69 µM | 6.73 µM | 0.0396 µM | 2.82 µM and 2.17 µM |
| COc1ccc(S(=O)(=O)N2CCNCC2)cc1OC | > 100 µM | > 100 µM | > 100 | > 100 µM | > 100 µM | > 100 µM | > 100 µM | > 100 µM | > 100 | > 100 µM | > 100 µM | > 100 µM | > 100 µM | > 100 µM | > 100 µM | > 100 µM | > 100 µM | > 100 µM | > 100 µM | > 100 µM |
| CC(C)N(Cc1ccc(F)cc1)c1ccc(CO)c(Cl)c1 | 4.83 µM | 17.9 µM | 12.3 | 25.7 µM | 0.0837 µM | 0.316 µM | 0.0664 µM | 0.4 µM | 14.8 | 37.8 µM | 13 µM | 28.8 µM | 0.144 µM | 10.7 µM | 2.51 µM | 19.6 µM | 1.81 µM | 14.1 µM | 8.35 µM | 21.6 µM |
| COc1c(OC(C)C)cc2cc(O)c(C(=O)NC3Cc4ccc(c(Cl)n4)O[C@@H]4C=C5C#C/C(=C\C#CC6OC56C4OC4CC(C)(O)C(O)C(C)O4)C(OC4CC(O)C(N(C)C)C(C)O4)COC3=O)cc2c1OC (some centres not stated) | 2.75 µg/mL | 37.5 µg/mL |  | > 36.3 µM | 21.9 µM and 1.08 µg/mL | > 36.3 µM and 37.5 µg/mL | 4.33 µM and 0.511 µg/mL | 21 µM and 7.44 µg/mL |  | > 36.3 µM | 32.7 µM and 2.8 µg/mL | > 36.3 µM and 21.4 µg/mL | 3.81 µM and 0.0528 µg/mL | > 36.3 µM and 7.13 µg/mL | 0.568 µg/mL | > 36.3 µM and 1.92 µg/mL | > 36.3 µM and 0.714 µg/mL | > 36.3 µM and 37.5 µg/mL | 0.529 µg/mL | 17.8 µg/mL |
| O=S(=O)(O)c1ccc2cc3nn(-c4ccc(/C=C/c5ccc(-n6nc7cc8ccc(S(=O)(=O)O)cc8cc7n6)cc5S(=O)(=O)O)c(S(=O)(=O)O)c4)nc3cc2c1 | > 100 µM | > 100 µM | > 100 | > 100 µM | > 100 µM | > 100 µM | 34.1 µM | > 100 µM | > 100 | > 100 µM | 44.5 µM | > 100 µM | 50.9 µM | > 100 µM | > 100 µM | > 100 µM | 59.1 µM | > 100 µM | 16.3 µM | > 100 µM |
| NC(=O)CC(N)c1nn[nH]n1 (configuration not stated) |  | > 100 µM |  | > 100 µM |  | > 100 µM |  | > 100 µM |  | > 100 µM |  | > 100 µM |  | > 100 µM |  | > 100 µM |  | > 100 µM |  | > 100 µM |
